In US10077290B2, “Stabilized antiviral fusion helices” (priority 2011, dated 2018):
“Also recorded” adds a separate entry of the source. Read-outs that look alike come from different tables or passages of the source. Bridges are numbered along the chain shown (N, C = ends). Where no end group is shown, it is not given here. [ ]: non-standard residue; d: D form. R8 = C=CCCCCCC[C@@](C)(N)C(=O)O; S5 = C=CCCC[C@](C)(N)C(=O)O

What was measured:
[1] = tested on: RSV 5-helix bundle; assay: Competition fluorescence polarization assay (FPA) against FITC-RSV HR2 (488-522); format: binding, Respiratory Syncytial Virus (RSV)
Procedure: To assess binding activity toward the RSV fusogenic bundle, competition FPA was performed using recombinant five-helix bundle protein, fluorescent HR2 peptide (488-522), and serial dilutions of SAHF peptides shown in Table 2. More specifically, a 5-helix bundle protein was designed containing five of the six helices that comprise the core of the RSV-F trimer of hairpins, connected by short peptide linkers in accordance with the design of the gp41 5-helix bundle (Root et al., Science, 291:884-888, 2001). Because the 5-helix bundle lacks the third HR2 helix but is otherwise soluble, stable, and helical, incorporation of the sixth HR2 peptide in the form of FITC-RSV (488-522) yielded a stable complex, which can be competed with acetylated SAH-RSV peptides to gauge relative binding affinity.
FPA assays were used to measure and compare the relative binding activities of distinct SAHF constructs for the RSV fusion bundle. First, FITC-RSV HR2 peptide (488-522) is mixed with a serial dilution of recombinant 5-helix bundle protein to generate a binding isotherm. A fixed concentration of FITC-peptide and protein at ˜EC75 was then incubated with a serial dilution of acetylated SAHF peptide to generate competition curves for comparative analysis. Fluorescence polarization (mP units) was measured on a SpectraMax fluorimeter and IC50 values calculated by nonlinear regression analysis of competition curves using Prism software (Graphpad).

[2] = tested on: rgRSV; assay: rgRSV in vitro infectivity assay in Vero cells; format: cell-based, Respiratory Syncytial Virus (RSV); conditions: for inhibition of RSV infection (anti-RSV activity): rgRSV 0.1 MOI, 24 hour post-infection; for RSV infection, peptide administered before viral exposure (prophylactically): SAHF for 1 hour followed by rgRSV 0.1 MOI; for RSV infection, peptide administered after viral exposure: rgRSV 0.1 MOI for 1 hour followed by SAHF
Procedure: To test the capacity of SAHF peptides to block RSV infection of culture cells, an in vitro infectivity assay was performed in the presence and absence of SAHF peptides. Briefly, Vero cells plated in 48-well format (60,000 cells/well) were exposed to rgRSV only (0.1 MOI) and SAHF peptides, followed by imaging 24 hour post-infection to quantitate infectivity by confocal microscopy and FACS analysis Annexin V staining was also performed on harvested Vero cells to distinguish live from dead cells when calculating percent GFP positive cells.
(§1) Vero cells plated in 48-well format (60,000 cells/well) were exposed to (a) rgRSV only (0.1 MOI); (b) rgRSV for 1 hour followed by treatment with SAHF; and (c) SAHF for 1 hour followed by rgRSV infection, and then imaged 24 hour post-infection to quantitate infectivity by confocal microscopy and FACS analysis.

[3] = tested on: rgRSV; assay: Intranasal peptide followed by transnasal rgRSV infection in mice; format: in vivo; conditions: 250 μM, 25 μL intranasally four hours before rgRSV, 20 hours post-infection
Procedure: To examine the capacity of SAH-RSV peptides to inhibit RSV infection in vivo, vehicle or SAH-RSV peptide (250 μM, 25 μL) was administered to anesthetized mice intranasally followed by transnasal infection with rgRSV (5×10^5 PFU, 36 μL) four hours later. Mice were sacrificed 20 hours post-infection, and the nasal epithelium cryosectioned, stained with DAPI, and imaged using a fluorescent microscope.

[4] = tested on: rgRSV; assay: Virus-induced syncytia formation in Vero cells; format: cell-based, Respiratory Syncytial Virus (RSV); conditions: administered before or after viral exposure
Procedure: as §1

[5] = Circular dichroism (CD) alpha-helicity; format: physicochemical; conditions: aqueous solution (pH 7, 35° C.)
Procedure: Compounds are dissolved in an aqueous solution (e.g. 5 mM potassium phosphate solution at pH 7, or distilled H2O, to concentrations of 25-50 μM). Circular dichroism (CD) spectra are obtained on a spectropolarimeter (e.g., Jasco J-710, Aviv) using standard measurement parameters (e.g. temperature, 20° C.; wavelength, 190-260 nm; step resolution, 0.5 nm; speed, 20 nm/sec; accumulations, 10; response, 1 sec; bandwidth, 1 nm; path length, 0.1 cm). The α-helical content of each peptide is calculated by dividing the mean residue ellipticity by the reported value for a model helical decapeptide (Yang et al., Methods Enzymol. 130:208 (1986)).
To document secondary structure improvements of hydrocarbon-stapled peptides, circular dichroism (CD) spectra was recorded and analyzed on a Model 410 Aviv Biomedical spectrometer (Walensky, supra; Bird, supra). […] The target peptide concentration for CD studies is 25-50 μM in 50 mM potassium phosphate (pH 7.5) or Milli-Q deionized water, and exact concentrations are confirmed by quantitative AAA of two CD sample dilutions. […] After conversion to mean residue ellipticity, percent α-helicity can be calculated using the equation, % helicity=100×[θ]222/max[θ]222, where max[θ]222=−40,000×[1−(2.5/number of amino acid residues)]. […]

[6] = tested on: RSV-A2; assay: RSV-A2 lung infection of BALB/c mice after prophylactic intranasal peptide; format: in vivo
Procedure: One hour post treatment, three groups of mice were inoculated with a single dose of RSV-A2 at 1×10^6 pfu/mouse. Peptide dosing and viral inoculation was repeated 16 hours post-infection. The fourth group was treated with volume-equivalent vehicle and mock-infected. Two mice from each group were sacrificed 4 days after the second infection and left lung lobes harvested after 1% paraformaldehyde perfusion, followed by cryopreservation in OCT. Sections (5 μm) were treated with 1:1000 dilution of rabbit anti-RSV polyclonal antibody (Millipore) overnight followed by anti-rabbit antibody conjugated to Alexa Fluor 555 (1:400) (red) (Molecular Probes) for 1 h. Sections were washed and mounted with medium containing DAPI (blue) and viewed with an Olympus fluorescent microscope (FIG. 17A; original magnification 20×). Image J analysis was performed on the acquired images and the percentage RSV-positive cells (red) of total DAPI-positive cells (blue) determined from 8 images (4 sections) per mice (FIG. 17B; .error bars represent mean+/−SEM; *, p<0.0001). Four days after the second infection, bronchoalveolar lavage (BAL) was performed on one mouse from each group and BAL supernatant used to determine the viral titers by plaque assay on Hep-2 cells (FIG. 17C; error bars represent mean+/−SEM of plaques counted per in vivo specimen; *, p<0.05). Also at four days after the second infection, cranial and caudal lobes of the right lung from two mice per group were snap frozen on dry ice. A lung homogenate was generated from the cranial lobe and supernatant subjected to viral titer determination (log 10 pfu/ml) (FIG. 17D; error bars represent mean+/−SEM; *, p<0.05). Total RNA was isolated from the caudal lobe of the right lung and quatitative RT-PCR was performed for the RSV-N gene. The results of this analysis are presented in FIG. 17E in which the bar graphs represent the RSV-N gene expression normalized to the mock-infected tissue.

[7] = tested on: RSV-A2; assay: RSV-A2 infection of A549 cells at 1 MOI, Hep-2 plaque assay titers; format: cell-based, Respiratory Syncytial Virus (RSV); conditions: 5 μM peptide
Procedure: In this study A549 cells were plated in a 24 well plate at 30,000 cells/well. The following day, the cells were treated with 5 μM of the indicated stapled SAHF peptide or volume-equivalent DMSO vehicle, followed by RSV-A2 infection at 1 MOI. The cells were infected for 2 h, and the infection medium replaced with 400 μl of DMEM containing 5% FBS and 5 μM of the indicated stapled SAHF peptide. Cells were harvested along with the supernantant 24 h post infection, vortexed for 10 sec, and the supernatant collected, leaving the cell pellet behind. Hep-2 cells were plated on a 24 well plate at 60,000 cells/well the day before use. Plaque assay was performed on Hep-2 cells using the collected supernatant and titers determined at 5 days post infection of Hep-2 cells. The results of this analysis are shown in FIG. 14 in which titers are shown as log 10 pfu/ml and the values represent the mean+/−SEM for two independent experiments (***p<0.001; ****p<0.0001).

[8] = tested on: RgRSV; assay: Intranasal RgRSV infection of BALB/c mice after intranasal peptide; format: in vivo; conditions: RgRSV-infected, 125 μM intranasally
Procedure: One hour post treatment, three groups of mice were inoculated with a single dose of RgRSV at 1×10^6 pfu/mouse, with the fourth group receiving a mock inoculation. Mice were sacrificed at 24 hours post infection and the noses harvested, sectioned, stained with DAPI and imaged with an Olympus fluorescent microscope (FIG. 16A; original magnification 20×). Image J analysis was performed on the acquired images (FIG. 16B) and average GFP positive (green) and DAPI positive (blue) cells were calculated from eight images (4 sections) per mouse (bars represent percent GFP positive of total DAPI-positive cells present in the images and error bars represent mean+/−SEM. *, p<0.001). FIG. 16C depicts the results of hematoxylin and eosin staining of the nose sections (original magnification 20×, insets 100×) In FIG. 16C black arrows highlight thickened mucosa.

## F8ASISQVXEKINQSLAFIRKSDELLHNVNAGKST (Ac-F[R8]ASISQV[S5]EKINQSLAFIRKSDELLHNVNAGKST; staple 2-9) [SAHF-G]
[1]
  5-helix bundle binding activity: superior 5-helix bundle binding
[2]
  inhibition of RSV infection (anti-RSV activity): superior

## FDASISQVNEKINQSLAFIR8SDELLHXVNAGKST (Ac-FDASISQVNEKINQSLAFIR[R8]SDELLH[S5]VNAGKST; staple 21-28) [SAHF-K]
[1]
  5-helix bundle binding activity: superior 5-helix bundle binding
[2]
  inhibition of RSV infection (anti-RSV activity): superior

## FDAXISQXNEKINQSLAFIRKSDELLHNVNAGKST (Ac-FDA[S5]ISQ[S5]NEKINQSLAFIRKSDELLHNVNAGKST; staple 4-8) [SAHF-C]
[1]
  5-helix bundle binding activity: bound the 5-helix bundle
[2]
  inhibition of RSV infection (anti-RSV activity): suppressed RSV infection in vitro
[3]
  RSV infection of nasal mucosa (GFP-positive cells): markedly suppressed RSV infection; also recorded: blocks trans-nasal RSV infection in mice

## FDASISQVNEKINQSLAFIRK8DELLHNXNAGKST [SAHF-L, negative control]
[1]
  5-helix bundle binding activity: no binding activity; also recorded: did not bind
[1]; listed as SAH-RSV(L)
  5-helix bundle binding activity: poor binding activity; also recorded: incapable of binding the 5-helix bundle
[2]
  RSV infection, peptide administered before viral exposure (prophylactically): little to no effect
  RSV infection, peptide administered after viral exposure: little to no effect
  inhibition of RSV infection (anti-RSV activity): nor suppressed RSV infection in vitro
[2]; listed as SAH-RSV(L)
  inhibition of RSV infection (anti-RSV activity): no activity
[3]
  RSV infection of nasal mucosa (GFP-positive cells): no in vivo activity
[4]
  virus-induced syncytia formation: little to no effect

## FD8SISQVNXKINQSLAFIRKSDELLHNVNAGKST (FDXSISQVNXKINQSLAFIRKSDELLHNVNAGKST; hydrocarbon staple; MOD_RES (3)..(3) Any amino acid; (3)..(10) Crosslink between residues; MOD_RES (10)..(10) Any amino acid) [SAHF-H]
[1]
  5-helix bundle binding activity: superior 5-helix bundle binding
[2]
  RSV infection, peptide administered before viral exposure (prophylactically): inhibited RSV infection; also recorded: blocks RSV infection of Vero cells
  RSV infection, peptide administered after viral exposure: inhibited RSV infection; also recorded: blocks RSV infection of Vero cells
  inhibition of RSV infection (anti-RSV activity): superior
[4]
  virus-induced syncytia formation: blocked syncytial formation; also recorded: inhibits virus-induced syncytia formation

## FDA8SQVVNEXINQSLAFIRKSDELLHNVNAGKST [SAHF-I]
[1]
  5-helix bundle binding activity: superior 5-helix bundle binding
[2]
  inhibition of RSV infection (anti-RSV activity): superior

## FDASISQVNEKINQSLAFI8KSDELLXNVNAGKST (Ac-FDASISQVNEKINQSLAFI[R8]KSDELL[S5]NVNAGKST; staple 20-27) [SAHF-J]
[1]
  5-helix bundle binding activity: superior 5-helix bundle binding
[2]
  inhibition of RSV infection (anti-RSV activity): superior

## FDASISQVNEKINQSLAFIRKSDELLHNVNAGKST [RSV HR2 (488-522)WT, reference compound]
[5]
  percent α-helicity: ~23%
[6]; caudal lobe of right lung
  RSV-N gene expression in lung (quantitative RT-PCR): no observed effect

## FDA8ISQVNEXINQSLAFI8KSDELLXNVNAGKST (Ac-FDA[R8]ISQVNE[S5]INQSLAFI[R8]KSDELL[S5]NVNAGKST; staple 4-11, 20-27) [SAHF-I, J]
[7]
  RSV-A2 infection (viral titers): inhibit RSV-A2 infection of A549 cells

## FD8SISQVNXKINQSLAFIRK8DELLHNXNAGKST (FDXSISQVNXKINQSLAFIRKXDELLHNXNAGKST; two hydrocarbon staples; MOD_RES (3)..(3) Any amino acid; (3)..(10) Crosslink between residues; MOD_RES (10)..(10) Any amino acid; MOD_RES (22)..(22) Any amino acid; (22)..(29) Crosslink between residues; MOD_RES (29)..(29) Any amino acid) [SAHF-H, L, control]
[8]
  inflammation in nose sections (hematoxylin and eosin staining): Inflammation is noted
[6]; 125 μM intranasally, dosing and inoculation repeated at 16 hours, 4 days after second infection
  RSV-A2 lung infection, by each measure (RSV-positive cells, BAL and lung homogenate titers, RSV-N gene): no effect
